Laboratory results as given in the supplement of paper PMC10307832.

Experiments:
Assay in all cases: relative viability (nuclei count vs DMSO), 5 days (fraction); higher = more cells survive
[1] = compound: NCC(=O)Nc1ccc(-n2nc(C(F)(F)F)cc2-c2ccc3c(ccc4ccccc43)c2)cc1 + CC1(C)CCC(c2ccc(Cl)cc2)=C(CN2CCN(c3ccc(C(=O)NS(=O)(=O)c4ccc(N[C@H](CCN5CCOCC5)CSc5ccccc5)c(S(=O)(=O)C(F)(F)F)c4)cc3)CC2)C1 [Navitoclax] (partner 0.5 µM)
Method in brief: (§1)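 Relative viability equals treated-well nuclei counts divided by vehicle-well nuclei counts. Counts came from 4× images of lung cancer cell lines grown in 1536-well plates for 5 days after pin-tool dosing on the day after seeding. Dosing used one drug alone or a fixed anchor-drug dose plus five library-drug doses (not always all listed) in √10 steps, and values are medians of duplicate plates.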

[2] = compound: NCC(=O)Nc1ccc(-n2nc(C(F)(F)F)cc2-c2ccc3c(ccc4ccccc43)c2)cc1 + CC(=O)c1c(C)c2cnc(Nc3ccc(N4CCNCC4)cn3)nc2n(C2CCCC2)c1=O [Palbociclib] (partner 0.5 µM)
Method in brief: as §1

kb NB 142-70 + Foretinib = compound: C1CSC2=C(C(=O)N1)SC3=C2C=C(C=C3)O [kb NB 142-70] + COc1cc2c(Oc3ccc(NC(=O)C4(C(=O)Nc5ccc(F)cc5)CC4)cc3F)ccnc2cc1OCCCN1CCOCC1 [Foretinib] (partner 0.25 µM)
Method in brief: as §1

[3] = compound: NCC(=O)Nc1ccc(-n2nc(C(F)(F)F)cc2-c2ccc3c(ccc4ccccc43)c2)cc1 + Nc1ncn([C@H]2C[C@H](O)[C@@H](CO)O2)c(=O)n1 [Decitabine] (partner 2 µM)
Method in brief: as §1

Cell Line	relative viability ([1]; first compound 0.02 µM)	relative viability ([1]; first compound 0.06325 µM)	relative viability ([1]; first compound 0.2 µM)	relative viability ([1]; first compound 0.6325 µM)	relative viability ([1]; first compound 2 µM)	relative viability ([2]; first compound 0.02 µM)	relative viability ([2]; first compound 0.06325 µM)	relative viability ([2]; first compound 0.2 µM)	relative viability ([2]; first compound 0.6325 µM)	relative viability ([2]; first compound 2 µM)	relative viability (kb NB 142-70 + Foretinib; first compound 0.1 µM)	relative viability (kb NB 142-70 + Foretinib; first compound 1 µM)	relative viability (kb NB 142-70 + Foretinib; first compound 3.162 µM)	relative viability ([3]; first compound 0.02 µM)	relative viability ([3]; first compound 0.06325 µM)	relative viability ([3]; first compound 0.2 µM)	relative viability ([3]; first compound 0.6325 µM)	relative viability ([3]; first compound 2 µM)
201T	1.26	1.18	1.24	1.25	1.22	0.342	0.374	0.366	0.363	0.351	1.07	1.17	1.08	0.838	0.846	0.901	0.87	0.846
A549	1.24	1.19	1.24	1.17	0.7						0.997	0.95	0.563	0.263	0.249	0.2	0.257	0.31
A-427	0.798	0.956	0.972	0.95	0.959	0.502	0.567	0.527	0.526	0.534	1.14	1.25	0.929	0.502	0.544	0.583	0.545	0.57
ABC-1						0.725	0.592		0.807	0.658	1.11	0.979	0.677	0.917	1.02		0.954	1.13
BEN	0.0632	0.0631	0.0469	0.0862	0.0668	0.441	0.475	0.473	0.49	0.465	0.535	0.648	0.486	0.69	0.669	0.7	0.709	0.77
CAL-12T	1.17	1.19	1.37	1.2	1.34	0.527	0.481	0.462	0.588	0.423	1.03	1.18	0.837					
COR-L23	1.1	0.935	1.01	1.07	1	0.297	0.293	0.346	0.261	0.245	1.06	1.04	0.457	0.437	0.434	0.475	0.413	0.309
COR-L 105	0.817	0.947	0.649	0.841	0.703	0.4	0.399	0.411	0.413	0.432	1.11	1.03	1	0.726	0.588	0.698	0.635	0.653
Calu-6	0.885	0.812	1.09	0.844	0.878						0.809	0.896	0.54					
ChaGo-K-1	0.931	1.06	0.636	0.939	1.19	0.919	0.929	0.933	0.973	0.917	0.89	0.967	0.862	0.55	0.526	0.506	0.522	0.549
EBC-1	0.451	0.427	0.554	0.456	0.435						0.0986	0.12	0.0991					
EKVX	0.902	0.969	1.07	0.971	1.03	0.436	0.417	0.397	0.348	0.382	0.834	0.903	0.86	0.365	0.368	0.369	0.393	0.361
EMC-BAC-2	1.14	1.19	1.26	1.17	1.13	0.514	0.513	0.537	0.518	0.532	0.994	1.01	0.581	1.02	0.998	1.05	0.948	0.944
EPLC-272H	1.25	1.07	1.15	1	1.09	0.332	0.306	0.36	0.335	0.326	0.696	0.725	0.255	0.382	0.35	0.331	0.423	0.372
H3255	0.481	0.578	0.594	0.482	0.457	0.35	0.313	0.314	0.322	0.304	0.742	0.946	1.05	0.669	0.479	0.643	0.715	0.667
HARA	1.24	1.14	1.15	1.16	1.15	0.258	0.173	0.287	0.294	0.256	0.771	0.521	0.867	0.581	0.611	0.537	0.654	0.528
HCC-15	0.746	0.731	0.716	0.716	0.693	0.714	0.732	0.763	0.742	0.749	1.01	1.13	0.946	0.623	0.659	0.677	0.67	0.654
HCC-44	0.866	0.942	1.02	0.958	0.944	1.04	0.961	0.994	0.977	0.962				0.885	0.956	0.933	0.905	0.927
HCC-78	0.854	0.868	0.729	0.715	0.908	0.541	0.482	0.526	0.403	0.496	0.496	0.585	0.614	0.788	0.763	0.698	0.675	0.658
HCC-366	1.15	1.04	1.02	1.03	1.16	0.399	0.449	0.378	0.394	0.355	0.93	0.858	0.895	0.353	0.369	0.367	0.352	0.517
